Laboratory results from publication PMC5352556 (Journal of chemical neuroanatomy, 2016).
Counter-ions that a name gives are not always drawn.

Legend:
Type in all cases: cell-based
rat Pmat (rPmat) = experiment: Concentration dependence of rPmat-mediated substrate uptake in MDCK/rPmat cells; settings: rPmat-mediated uptake, MDCK/rPmat minus mock, 3 min, 37 °C, pH 7.4
human PMAT (hPMAT) = target: T1, human PMAT (hPMAT) (Homo sapiens, UniProt Q7RTT9); experiment: Concentration dependence of hPMAT-mediated substrate uptake in MDCK/hPMAT cells; settings: hPMAT-mediated uptake, MDCK/hPMAT minus mock, 3 min, 37 °C, pH 7.4
T1 sequence (Q7RTT9 1-530): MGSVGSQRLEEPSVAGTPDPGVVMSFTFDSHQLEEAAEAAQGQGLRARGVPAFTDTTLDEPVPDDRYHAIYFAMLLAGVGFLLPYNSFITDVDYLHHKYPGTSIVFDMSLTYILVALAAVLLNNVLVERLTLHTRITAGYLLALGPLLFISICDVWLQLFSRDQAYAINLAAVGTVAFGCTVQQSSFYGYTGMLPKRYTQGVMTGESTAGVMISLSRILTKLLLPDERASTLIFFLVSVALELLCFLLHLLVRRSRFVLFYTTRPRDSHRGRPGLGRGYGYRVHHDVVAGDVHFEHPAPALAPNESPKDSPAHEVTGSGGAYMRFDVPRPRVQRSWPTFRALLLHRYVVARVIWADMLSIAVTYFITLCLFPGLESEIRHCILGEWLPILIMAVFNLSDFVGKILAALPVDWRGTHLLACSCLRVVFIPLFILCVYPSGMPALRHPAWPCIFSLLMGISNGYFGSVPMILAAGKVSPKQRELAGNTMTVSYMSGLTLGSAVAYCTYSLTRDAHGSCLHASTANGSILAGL

mouse Pmat (mPmat) = target: T2, mouse Pmat (mPmat) (Mus musculus, UniProt Q8R139); settings: mPmat-mediated uptake, Flp293/mPmat minus mock, 2 min, 37 °C, pH 7.4
T2 sequence (Q8R139 1-528): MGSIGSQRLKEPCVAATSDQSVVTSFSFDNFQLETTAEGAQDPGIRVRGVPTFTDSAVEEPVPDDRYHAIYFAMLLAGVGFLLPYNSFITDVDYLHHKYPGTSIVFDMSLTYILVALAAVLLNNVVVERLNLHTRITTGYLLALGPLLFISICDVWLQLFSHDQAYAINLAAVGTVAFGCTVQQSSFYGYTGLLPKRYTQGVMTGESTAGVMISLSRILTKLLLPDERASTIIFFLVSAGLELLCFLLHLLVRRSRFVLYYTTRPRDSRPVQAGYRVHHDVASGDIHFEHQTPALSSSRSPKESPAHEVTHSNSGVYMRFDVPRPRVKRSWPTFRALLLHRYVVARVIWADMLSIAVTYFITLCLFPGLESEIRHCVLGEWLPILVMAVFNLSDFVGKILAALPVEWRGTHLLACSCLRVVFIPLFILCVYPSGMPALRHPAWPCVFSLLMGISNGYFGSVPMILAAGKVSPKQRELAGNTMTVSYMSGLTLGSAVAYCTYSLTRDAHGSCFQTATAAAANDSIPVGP

SMILES	Km (rat Pmat (rPmat)) [µM]	Vmax (rat Pmat (rPmat)) [nmol/min/mg protein]	Vmax (rat Pmat (rPmat); listed as dopamine) [nmol/min/mg protein]	Km (human PMAT (hPMAT)) [µM]	Vmax (human PMAT (hPMAT)) [nmol/min/mg protein]	Km (mouse Pmat (mPmat)) [µM]	Vmax (mouse Pmat (mPmat)) [nmol/min/mg protein]
[3H]c1c([3H])c(CCN)c([3H])c(O)c1O [Dopamine, 3,4-dihydroxy-[2,5,6-^3H]phenylethylamine]	271 ± 50	0.750 ± 0.049	0.750 ± 0.049	201 ± 34	1.43 ± 0.08	–	–
NCCc1c[nH]c2ccc(O)cc12 [Serotonin, 5-hydroxy-[1,2-^3H]tryptamine creatinine sulfate]	82.9 ± 21.2	1.26 ± 0.12	–	116 ± 27	–	–	–
C[n+]1ccc(-c2ccccc2)cc1 [MPP^+, 1-methyl-4-phenylpyridinium]	70.2 ± 12.3	0.210 ± 0.011	–	33.7 ± 6	0.490 ± 0.190	49.5 ± 0.1	1.59 ± 0.068
